Results published in article PMC12207590, “Substrate Specificity of the Organic Cation Transporters MATE1 and MATE2K and Functional Overlap with OCT1 and OCT2” (Journal of Medicinal Chemistry, 2025).
Where two headings read alike, the source gives them in different places.

Assays:
MATE1 = target: T1, MATE1 (Homo sapiens, UniProt Q96FL8); assay: Uptake ratio in MATE1-overexpressing HEK293 cells vs empty vector (2.5 μM, 1 min, HPLC-MS/MS); type: cell-based
T1 sequence (Q96FL8 1-570): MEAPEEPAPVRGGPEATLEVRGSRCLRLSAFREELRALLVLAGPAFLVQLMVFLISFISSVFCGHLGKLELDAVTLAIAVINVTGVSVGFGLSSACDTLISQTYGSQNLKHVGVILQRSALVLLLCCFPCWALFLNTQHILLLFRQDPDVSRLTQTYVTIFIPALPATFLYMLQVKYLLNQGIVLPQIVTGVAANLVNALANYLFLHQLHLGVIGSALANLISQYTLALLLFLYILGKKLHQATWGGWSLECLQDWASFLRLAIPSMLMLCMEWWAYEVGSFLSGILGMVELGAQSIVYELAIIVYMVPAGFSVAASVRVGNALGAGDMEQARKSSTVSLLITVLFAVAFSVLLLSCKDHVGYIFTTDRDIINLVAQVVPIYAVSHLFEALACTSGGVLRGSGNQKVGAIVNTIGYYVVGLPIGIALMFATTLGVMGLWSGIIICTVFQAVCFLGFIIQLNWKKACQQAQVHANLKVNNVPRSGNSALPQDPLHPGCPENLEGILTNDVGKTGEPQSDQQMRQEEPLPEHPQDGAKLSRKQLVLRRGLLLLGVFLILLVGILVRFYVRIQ

MATE2K = MATE2K (Homo sapiens, UniProt Q86VL8); assay: Uptake ratio in MATE2K-overexpressing HEK293 cells vs empty vector (2.5 μM, 1 min, HPLC-MS/MS); type: cell-based
MATE2K, sequence (Q86VL8 1-566 isoform Q86VL8-3): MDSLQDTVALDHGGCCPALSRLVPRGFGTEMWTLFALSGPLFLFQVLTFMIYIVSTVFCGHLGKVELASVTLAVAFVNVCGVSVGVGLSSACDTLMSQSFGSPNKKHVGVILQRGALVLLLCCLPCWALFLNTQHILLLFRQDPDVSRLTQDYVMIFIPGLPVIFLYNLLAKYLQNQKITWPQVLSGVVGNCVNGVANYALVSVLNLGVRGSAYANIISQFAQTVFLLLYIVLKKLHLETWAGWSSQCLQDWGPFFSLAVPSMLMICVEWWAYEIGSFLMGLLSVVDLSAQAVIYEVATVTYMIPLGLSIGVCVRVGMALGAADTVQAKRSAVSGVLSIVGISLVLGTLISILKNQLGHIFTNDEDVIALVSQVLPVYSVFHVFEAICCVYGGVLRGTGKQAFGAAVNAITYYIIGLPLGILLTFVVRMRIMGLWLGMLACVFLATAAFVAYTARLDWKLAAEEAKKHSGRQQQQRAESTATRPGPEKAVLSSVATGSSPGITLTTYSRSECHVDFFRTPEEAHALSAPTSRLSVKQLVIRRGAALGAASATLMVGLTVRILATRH

[1] = fold uptake over empty vector, 2.5 μM, 1 min
[2] = uptake ratio MATE1-overexpressing vs empty-vector HEK293 cells, 2.5 μM, 1 min, mean
[3] = uptake ratio MATE2K-overexpressing vs empty-vector HEK293 cells, 2.5 μM, 1 min, mean
[4] = mean ratio of uptake in MATE1-overexpressing HEK293 cells vs empty vector, 2.5 μM, 1 min
[5] = mean ratio of uptake in MATE2K-overexpressing HEK293 cells vs empty vector, 2.5 μM, 1 min

Row | Structure (SMILES) | MATE1 ratio (MATE1) | MATE2K ratio (MATE2K) | MATE1 ratio (MATE1; [1]) | MATE2K ratio (MATE2K; [1]) | MATE1 (uptake ratio) (MATE1) | MATE2 (uptake ratio) (MATE2K) | also measured
1 | NCc1ccc(O)cc1 | 1.48 | 1.09 | – | – | – | – | –
2 | COc1ccc2[nH]cc(C[C@H](N)C(=O)O)c2c1 | – | – | 0.89 | 1.10 | – | – | –
3 | OCCc1ccccc1 | – | – | 1.39 | 1.20 | – | – | –
4 | CNC[C@H](O)c1ccc(O)c(O)c1 (racemic) [Epinephrine (rac), Epinephrine] | – | – | 18.70 | 3.27 | – | – | –
5 | C[C@H](NCCc1ccc(O)cc1)[C@H](O)c1ccc(O)cc1 (racemic) [Ritodrine] | – | – | 8.03 | 2.23 | – | – | MATE1 (MATE1; [2]): 8.03; MATE2 (MATE2K; [3]): 2.23
6 | N[C@@H]1C[C@H]1c1ccccc1 (racemic) [Tranylcypromine] | – | – | – | – | – | – | MATE1 (MATE1): 1.45; MATE2 (MATE2K): 1.98
7 | CC(C)(C)NCC(O)COc1nsnc1N1CCOCC1 (stereo in doubt) [Timolol (R)] | – | – | – | – | – | – | MATE1 (MATE1; [2]): 0.94; MATE2 (MATE2K; [3]): 0.96
8 | Cc1ccc(O)c(C(CCN(C(C)C)C(C)C)c2ccccc2)c1 (stereo in doubt) [Tolterodine (S)] | – | – | – | – | – | – | MATE1 (MATE1): 1.16
9 | N=C(Nc1ccccc1)Nc1ccccc1 [1,3-Diphenylguanidine] | 1.53 | 1.27 | – | – | 1.53 | 1.27 | –
10 | N=C(N)NC(=N)Nc1ccc(Cl)cc1 [1-(4-Chlorophenyl)biguanide] | 6.97 | 3.82 | – | – | 6.97 | 3.82 | –
11 | C[n+]1ccc(-c2ccccc2)cc1 [1-Methyl-4-phenylpyridinium] | 23.35 | 9.05 | – | – | 23.35 | 9.05 | MATE1 ratio in this study (MATE1): 23.35; MATE2K ratio in this study (MATE2K): 9.05
12 | Cn1c(=O)[nH]c2nc[nH]c2c1=O [1-Methylxanthine] | 1.08 | 0.96 | – | – | 1.08 | 0.96 | –
13 | CCC(Cc1ccc2c(c1)OCO2)NC (stereo not shown) [2-Methylamino-1-(3,4-methylendioxyphenyl)butan] | 1.35 | 1.24 | – | – | 1.35 | 1.24 | –
14 | CCC(C)C(=O)OC(CC(=O)[O-])C[N+](C)(C)C (stereo not shown) [2-Methylbutyrylcarnitine] | – | – | 0.61 | 1.24 | – | – | MATE1 (uptake ratio) (MATE1; [4]): 0.61; MATE2 (uptake ratio) (MATE2K; [5]): 1.24
15 | NCCc1ccccc1 [2-Phenylethylamine] | – | – | 1.39 | 1.43 | – | – | MATE1 (uptake ratio) (MATE1; [4]): 1.39; MATE2 (uptake ratio) (MATE2K; [5]): 1.43
16 | COc1cc(CCN)ccc1O [3-Methoxy-p-tyramine] | 4.05 | 1.39 | – | – | 4.05 | 1.39 | –
17 | N=C(N)N1Cc2ccccc2C(O)C1 (stereo not shown) [4-Hydroxydebrisoquine] | – | – | 9.59 | 3.34 | – | – | MATE1 (uptake ratio) (MATE1; [4]): 9.59; MATE2 (uptake ratio) (MATE2K; [5]): 3.34
18 | Cc1cc(O)cc(C)c1OCC(C)N (stereo not shown) [4-Hydroxymexiletine] | – | – | 1.67 | 1.42 | – | – | MATE1 (uptake ratio) (MATE1; [4]): 1.67; MATE2 (uptake ratio) (MATE2K; [5]): 1.42
19 | COc1ccc(CCN)cc1O [4-Methoxy-m-tyramine] | 3.09 | 1.19 | – | – | 3.09 | 1.19 | –
20 | COc1ccc(CCN)cc1 [4-Methoxyphenethylamine] | 1.40 | 1.23 | – | – | 1.4 | 1.23 | –
21 | NCCc1c[nH]c2c(O)cc(O)cc12 [5,7-Dihydroxytryptamine] | 1.13 | 0.84 | – | – | 1.13 | 0.84 | –

Row | Structure (SMILES) | MATE1 ratio (MATE1) | MATE2K ratio (MATE2K) | MATE1 ratio (MATE1; [1]) | MATE2K ratio (MATE2K; [1]) | MATE1 (uptake ratio) (MATE1) | MATE2 (uptake ratio) (MATE2K) | also measured
22 | Nc1ccc2[nH]ncc2c1 [5-Aminoindazole] | – | – | 0.99 | 0.73 | – | – | MATE1 (uptake ratio) (MATE1; [4]): 0.99; MATE2 (uptake ratio) (MATE2K; [5]): 0.73
23 | NCCc1cc(O)c(O)cc1O [6-Hydroxydopamine] | 1.05 | 1.24 | – | – | 1.05 | 1.24 | –
24 | Oc1ccc2c3c1O[C@H]1[C@H](O)CC[C@@]4(O)[C@@H](C2)N(CC2CC2)CC[C@]314 [6-beta-Naltrexol] | 1.20 | 1.20 | – | – | 1.2 | 1.2 | –
25 | CNCC/C=C1/c2ccccc2CC(O)c2ccccc21 (stereo not shown) [10-OH-Nortriptyline] | 1.17 | 1.14 | – | – | 1.17 | 1.14 | –
26 | C[C@]12CCC(=O)C=C1CC[C@@H]1[C@@H]2CC[C@@]2(C)[C@H]1CC[C@]2(C)O [17-Alpha-methyltestosterone] | 1.17 | 1.22 | – | – | 1.17 | 1.22 | –
27 | N=C(N)NCCC[C@H](NC(=O)c1ccc2ccccc2c1O)C(=O)N1CCC[C@H]1C(N)=O [APC366] | 19.12 | 1.41 | – | – | 19.12 | 1.41 | –
28 | Nc1nc(NC2CC2)c2ncn([C@H]3C=C[C@@H](CO)C3)c2n1 [Abacavir] | – | – | 0.94 | 1.25 | – | – | MATE1 (uptake ratio) (MATE1; [4]): 0.94; MATE2 (uptake ratio) (MATE2K; [5]): 1.25
29 | CCN1CCN(Cc2ccc(Nc3ncc(F)c(-c4cc(F)c5nc(C)n(C(C)C)c5c4)n3)nc2)CC1 [Abemaciclib] | – | – | 1.06 | 1.01 | – | – | MATE1 (uptake ratio) (MATE1; [4]): 1.06; MATE2 (uptake ratio) (MATE2K; [5]): 1.01
30 | CCCS(=O)(=O)N[C@H]1C[C@@H](N(C)c2ncnc3[nH]ccc23)C1 [Abrocitinib] | – | – | 1.09 | 1.19 | – | – | MATE1 (uptake ratio) (MATE1; [4]): 1.09; MATE2 (uptake ratio) (MATE2K; [5]): 1.19
31 | CC(=O)OC1CN2CCC1CC2 (stereo not shown) [Aceclidine] | 1.26 | 1.08 | – | – | 1.26 | 1.08 | –
32 | O=C(O[C@H]1C[N+]2(CCCOc3ccccc3)CCC1CC2)C(O)(c1cccs1)c1cccs1 [Aclidinium (S), Aclidinium] | – | – | 5.36 | 1.64 | – | – | MATE1 (uptake ratio) (MATE1; [4]): 5.36; MATE2 (uptake ratio) (MATE2K; [5]): 1.64
33 | C#CCN(C)[C@H](C)Cc1ccccc1 [Selegiline (S), Selegiline] | – | – | – | – | – | – | MATE2 (MATE2K): 1.08
34 | CCN1CCC[C@H]1CNC(=O)c1cc(S(N)(=O)=O)ccc1OC [Sulpiride (S)] | – | – | – | – | – | – | MATE2 (MATE2K): 18.54
35 | CCOc1ccccc1OCCN[C@H](C)Cc1ccc(OC)c(S(N)(=O)=O)c1 [Tamsulosin] | – | – | – | – | – | – | MATE1 (MATE1; [2]): 1.4
36 | NCCS(=O)(=O)O [Taurine] | – | – | – | – | – | – | MATE2 (MATE2K; [3]): 1.2
37 | NC(=O)[C@@H]1CCCN1C(=O)[C@H](Cc1cnc[nH]1)NC(=O)[C@@H]1CCC(=O)N1 [Thyrotropin-Releasing-Hormon] | – | – | – | – | – | – | MATE1 (MATE1; [2]): 1.71
38 | Cc1ccc(O)c([C@H](CCN(C(C)C)C(C)C)c2ccccc2)c1 [Tolterodine (R)] | – | – | – | – | – | – | MATE2 (MATE2K): 1.06
39 | NCCNCCNCCN [Triethylentetramine] | – | – | – | – | – | – | MATE1 (MATE1; [2]): 0.65
40 | NCCc1c[nH]c2ccccc12 [Tryptamine] | – | – | – | – | – | – | MATE1 (MATE1): 2.21
41 | Cc1cc(C(C)(C)C)cc(C)c1CC1=NCCN1 [Xylometazoline] | – | – | – | – | – | – | MATE1 (MATE1): 1.55
